Data from ChEMBL document CHEMBL3885881, “DrugMatrix”.

Species: Rattus norvegicus
Experiment: DrugMatrix - Regimen: Daily Repeat
Assay type: toxicity, organism-based, Sprague-Dawley
Parameters: regimen Daily Repeat, gender Male, age 6-8 weeks
Conditions: in vivo, po, route oral GAVAGE, vehicle .5 % CMC; for ABSOLUTE BASOPHIL / ABSOLUTE EOSINOPHIL / ABSOLUTE LYMPHOCYTE / ABSOLUTE MONOCYTE / ABSOLUTE SEGMENTED NEUTROPHIL / BASOPHIL / EOSINOPHIL / ERYTHROCYTE COUNT / HEMATOCRIT / HEMOGLOBIN / LEUKOCYTE COUNT / LYMPHOCYTE / MEAN CORPUSCULAR HEMOGLOBIN CONCENTRATION / MEAN CORPUSCULAR VOLUME / MONOCYTE / NEUTROPHIL / NUCLEATED RED BLOOD CELLS / PLATELET COUNT: tissue Blood; for ALANINE AMINOTRANSFERASE / ALBUMIN / ALKALINE PHOSPHATASE / BLOOD UREA NITROGEN / CARBON DIOXIDE / CHLORIDE / CHOLESTEROL / CREATINE PHOSPHOKINASE / CREATININE / GLUCOSE / LACTATE DEHYDROGENASE / LIPASE / PHOSPHORUS / POTASSIUM / SODIUM / TOTAL BILIRUBIN / TOTAL PROTEIN: tissue Plasma
[1] = 0 mg/kg, 72 h, dose level Control, time 3 day
[2] = 0 mg/kg, 120 h, dose level Control, time 5 day
[3] = 60 mg/kg, 72 h, dose level High, time 3 day

How did the “ABSOLUTE BASOPHIL” value [1] turn out when CO[C@H]1C[C@@H]2CC[C@@H](C)[C@@](O)(O2)C(=O)C(=O)N2CCCC[C@H]2C(=O)O[C@H]([C@H](C)C[C@@H]2CC[C@@H](O)[C@H](OC)C2)CC(=O)[C@H](C)/C=C(\C)[C@@H](O)[C@@H](OC)C(=O)[C@H](C)C[C@H](C)/C=C/C=C/C=C/1C [SIROLIMUS] was run?
The value was 0 CELLS/uL.

And the “ABSOLUTE EOSINOPHIL” value [1]?
The value was 47.67 CELLS/uL.

What about the “ABSOLUTE LYMPHOCYTE” value [1] of the same compound?
The value was 15937.67 CELLS/uL.

What about the “ABSOLUTE MONOCYTE” value [1] of the same compound?
Its value is 138.33 CELLS/uL.

And the “ABSOLUTE SEGMENTED NEUTROPHIL” value [1]?
Its value is 1443 CELLS/uL.

What about the BASOPHIL [1] of the same compound?
The BASOPHIL was 0%.

What about the EOSINOPHIL [1] of the same compound?
Its EOSINOPHIL is 0.33%.

What about the “ERYTHROCYTE COUNT” value [1] of the same compound?
Its value is 5.45 x10E6/uL.

What about the HEMATOCRIT [1] of the same compound?
The HEMATOCRIT was 34.43%.

What about the HEMOGLOBIN [1] of the same compound?
Its HEMOGLOBIN is 13.38 G/DL.

And the “LEUKOCYTE COUNT” value [1]?
The value was 17.57 x10E3/uL.

What about the LYMPHOCYTE [1] of the same compound?
Its LYMPHOCYTE is 90.33%.

And the “MEAN CORPUSCULAR HEMOGLOBIN CONCENTRATION” value [1]?
Its value is 38.88 G/DL.

What about the “MEAN CORPUSCULAR VOLUME” value [1] of the same compound?
Its value is 63.27 fL.

What about the MONOCYTE [1] of the same compound?
Its MONOCYTE is 0.83%.

And the NEUTROPHIL [1]?
Its NEUTROPHIL is 8.5%.

What about the “NUCLEATED RED BLOOD CELLS” value [1] of the same compound?
Its value is 0 /100WBC.

What about the “PLATELET COUNT” value [1] of the same compound?
The value was 1298 x10E3/uL.

And the “ALANINE AMINOTRANSFERASE” value [1]?
Its value is 47.67 u/L.

What about the ALBUMIN [1] of the same compound?
The ALBUMIN was 4.18 G/DL.

And the “ALKALINE PHOSPHATASE” value [1]?
The value was 398.5 u/L.

What about the “BLOOD UREA NITROGEN” value [1] of the same compound?
Its value is 16 mg/dL.

And the “CARBON DIOXIDE” value [1]?
The value was 29.17 mmol/L.

And the CHLORIDE [1]?
The CHLORIDE was 98.17 MEQ/L.

What about the CHOLESTEROL [1] of the same compound?
Its CHOLESTEROL is 68.83 mg/dL.

And the “CREATINE PHOSPHOKINASE” value [1]?
The value was 467.33 u/L.

What about the CREATININE [1] of the same compound?
Its CREATININE is 0.14 mg/dL.

What about the GLUCOSE [1] of the same compound?
The GLUCOSE was 151.67 mg/dL.

What about the “LACTATE DEHYDROGENASE” value [1] of the same compound?
The value was 597.5 u/L.

What about the LIPASE [1] of the same compound?
Its LIPASE is 9.33 u/L.

And the PHOSPHORUS [1]?
Its PHOSPHORUS is 11.97 mg/dL.

And the POTASSIUM [1]?
The POTASSIUM was 6.43 MEQ/L.

And the SODIUM [1]?
The SODIUM was 140.68 MEQ/L.

What about the “TOTAL BILIRUBIN” value [1] of the same compound?
The value was 0.18 mg/dL.

And the “TOTAL PROTEIN” value [1]?
The value was 5.82 G/DL.

And the “ABSOLUTE BASOPHIL” value [2]?
Its value is 0 CELLS/uL.

What about the “ABSOLUTE EOSINOPHIL” value [2] of the same compound?
Its value is 31 CELLS/uL.

What about the “ABSOLUTE LYMPHOCYTE” value [2] of the same compound?
The value was 14327.83 CELLS/uL.

And the “ABSOLUTE MONOCYTE” value [2]?
Its value is 102.83 CELLS/uL.

What about the “ABSOLUTE SEGMENTED NEUTROPHIL” value [2] of the same compound?
Its value is 1321.67 CELLS/uL.

What about the BASOPHIL [2] of the same compound?
The BASOPHIL was 0%.

And the EOSINOPHIL [2]?
The EOSINOPHIL was 0.17%.

What about the “ERYTHROCYTE COUNT” value [2] of the same compound?
Its value is 5.79 x10E6/uL.

And the HEMATOCRIT [2]?
Its HEMATOCRIT is 36.1%.

And the “LEUKOCYTE COUNT” value [2]?
Its value is 15.78 x10E3/uL.

And the LYMPHOCYTE [2]?
Its LYMPHOCYTE is 90.5%.

What about the “MEAN CORPUSCULAR HEMOGLOBIN CONCENTRATION” value [2] of the same compound?
The value was 39.22 G/DL.

What about the “MEAN CORPUSCULAR VOLUME” value [2] of the same compound?
The value was 62.4 fL.

And the MONOCYTE [2]?
The MONOCYTE was 0.67%.

And the NEUTROPHIL [2]?
The NEUTROPHIL was 8.67%.

And the “NUCLEATED RED BLOOD CELLS” value [2]?
The value was 0.17 /100WBC.

And the “PLATELET COUNT” value [2]?
Its value is 1211.67 x10E3/uL.

And the “ALANINE AMINOTRANSFERASE” value [2]?
The value was 49 u/L.

And the ALBUMIN [2]?
Its ALBUMIN is 4.27 G/DL.

And the “ALKALINE PHOSPHATASE” value [2]?
The value was 356.67 u/L.

And the “BLOOD UREA NITROGEN” value [2]?
The value was 20.5 mg/dL.

And the “CARBON DIOXIDE” value [2]?
The value was 29.17 mmol/L.

And the CHLORIDE [2]?
Its CHLORIDE is 98 MEQ/L.

What about the CHOLESTEROL [2] of the same compound?
Its CHOLESTEROL is 69.83 mg/dL.

What about the “CREATINE PHOSPHOKINASE” value [2] of the same compound?
Its value is 312 u/L.

And the CREATININE [2]?
Its CREATININE is 0.21 mg/dL.

What about the GLUCOSE [2] of the same compound?
The GLUCOSE was 149.83 mg/dL.

And the “LACTATE DEHYDROGENASE” value [2]?
Its value is 322 u/L.

And the LIPASE [2]?
Its LIPASE is 10 u/L.

What about the PHOSPHORUS [2] of the same compound?
Its PHOSPHORUS is 12 mg/dL.

What about the POTASSIUM [2] of the same compound?
The POTASSIUM was 6.75 MEQ/L.

And the SODIUM [2]?
The SODIUM was 142.8 MEQ/L.

What about the “TOTAL BILIRUBIN” value [2] of the same compound?
The value was 0.17 mg/dL.

What about the “TOTAL PROTEIN” value [2] of the same compound?
The value was 6.1 G/DL.

What about the “ABSOLUTE BASOPHIL” value [3] of the same compound?
Its value is 0 CELLS/uL.

And the “ABSOLUTE EOSINOPHIL” value [3]?
Its value is 0 CELLS/uL.

And the “ABSOLUTE LYMPHOCYTE” value [3]?
The value was 11212.33 CELLS/uL.

What about the “ABSOLUTE SEGMENTED NEUTROPHIL” value [3] of the same compound?
Its value is 775.67 CELLS/uL.

What about the BASOPHIL [3] of the same compound?
The BASOPHIL was 0%.

What about the EOSINOPHIL [3] of the same compound?
Its EOSINOPHIL is 0%.

What about the “ERYTHROCYTE COUNT” value [3] of the same compound?
The value was 6.32 x10E6/uL.

And the HEMATOCRIT [3]?
The HEMATOCRIT was 39.93%.

And the HEMOGLOBIN [3]?
Its HEMOGLOBIN is 15.57 G/DL.

What about the “LEUKOCYTE COUNT” value [3] of the same compound?
The value was 12.23 x10E3/uL.

What about the LYMPHOCYTE [3] of the same compound?
Its LYMPHOCYTE is 91.67%.

What about the “MEAN CORPUSCULAR HEMOGLOBIN CONCENTRATION” value [3] of the same compound?
The value was 39 G/DL.

And the “MEAN CORPUSCULAR VOLUME” value [3]?
The value was 63.4 fL.

And the MONOCYTE [3]?
The MONOCYTE was 2%.

And the NEUTROPHIL [3]?
Its NEUTROPHIL is 6.33%.

What about the “NUCLEATED RED BLOOD CELLS” value [3] of the same compound?
The value was 0 /100WBC.

And the “PLATELET COUNT” value [3]?
The value was 1112 x10E3/uL.

And the “ALANINE AMINOTRANSFERASE” value [3]?
Its value is 51.33 u/L.

And the ALBUMIN [3]?
The ALBUMIN was 4.23 G/DL.

What about the “ALKALINE PHOSPHATASE” value [3] of the same compound?
The value was 271 u/L.

What about the “BLOOD UREA NITROGEN” value [3] of the same compound?
Its value is 18.33 mg/dL.

What about the “CARBON DIOXIDE” value [3] of the same compound?
The value was 29.67 mmol/L.

And the CHLORIDE [3]?
Its CHLORIDE is 97.67 MEQ/L.

What about the CHOLESTEROL [3] of the same compound?
The CHOLESTEROL was 84.33 mg/dL.

What about the “CREATINE PHOSPHOKINASE” value [3] of the same compound?
Its value is 323.67 u/L.

And the CREATININE [3]?
Its CREATININE is 0.19 mg/dL.

And the GLUCOSE [3]?
The GLUCOSE was 192 mg/dL.

And the “LACTATE DEHYDROGENASE” value [3]?
The value was 111.33 u/L.

What about the LIPASE [3] of the same compound?
The LIPASE was 10.33 u/L.

And the PHOSPHORUS [3]?
Its PHOSPHORUS is 11.37 mg/dL.

And the POTASSIUM [3]?
The POTASSIUM was 5.46 MEQ/L.

What about the SODIUM [3] of the same compound?
The SODIUM was 143.47 MEQ/L.

And the “TOTAL BILIRUBIN” value [3]?
The value was 0.17 mg/dL.

And the “TOTAL PROTEIN” value [3]?
The value was 5.9 G/DL.

And the “ABSOLUTE BASOPHIL” value (60 mg/kg, 120 h, dose level High, time 5 day)?
Its value is 0 CELLS/uL.
